Values of other authors as cited in patent US20140080711A1, “SUSPENSION OF PARTICLES COMPRISING CYCLOPROPENE COMPLEXES DISPERSED IN A RESIN MATRIX” (AgroFresh Inc., priority 2012, published 2014).

Tested on: ethylene receptors

With `CC1=CC1` [Sample 1-MCP, 1-methylcyclopropene] as the compound, how does the “affinity for the receptor relative to that of ethylene” value read?
Its value is “approximately 10 times”.
